Assays:
Assay type in all cases: in vivo, Wistar rats
[1] = tested on: scopolamine-induced amnesia rats; test: Passive avoidance test, scopolamine-induced amnesia (acute model); conditions: Mean ± SEM; for Latency time: time to enter darker compartment
Experimental: (§1) In the acute model, the rats were trained for Morris water maze (MWM) and passive avoidance test (PAT) tasks in the first 4 days. On the 5th day, 30 min after scopolamine administration, respective treatments were given to all the groups. Fifteen minutes thereafter, the test trials were conducted in MWM and PAT.
The passive avoidance apparatus consists of a larger illuminated compartment and a smaller dark compartment. Each consists of a square box, with a floor grid of 50 × 50 cm and wooden walls of 35-cm height in larger compartment. Larger box was illuminated by 15 W Philips CFL lamp. A smaller dark compartment of 15 × 15 cm with an electrified floor is connected to a constant current stimulator. An opening 6 × 6 cm in between the two compartments was closed using a transparent plexiglass sliding door. The test procedure was carried out in three phases, exploration, learning, and retention (Praveenkumar [2019]).
First day, the animal was placed in the center of the illuminated larger compartment facing away from the entrance to the small darker compartment and allowed to explore the apparatus, i.e., both compartments for 3 min. Total time spent in the larger and smaller compartments and the number of crossings (from larger to smaller compartments and vice versa; a measure of exploratory behavior) were noted. On the second day, animal was placed in the illuminated larger compartment facing away from the entrance to the darker compartment. Once the animal entered the darker compartment, the entrance to the larger compartment was closed, and three strong electric foot shocks (50 Hz, 0.5 mA, 2 s) with 10-s intervals were applied. On the third day, rats were placed in the illuminated larger compartment and allowed to explore both the compartments for 3 min. The parameters assessed are latency time to enter into darker compartment, time spent in the darker and brighter compartments, and the number of crossings between the compartments.

[2] = tested on: ICV colchicine-induced dementia rats; test: Morris water maze test, ICV colchicine-induced dementia (chronic model); conditions: Mean ± SEM; for Escape latency, 14th day / Escape latency, 21st day: colchicine 15 µg ICV; for Escape latency, Probe day: colchicine model
Experimental: In the chronic model, the rats were trained for MWM and PAT tasks for the first 4 days followed by intracerebroventricular (i.c.v.) administration of colchicine on day 6. After establishing dementia on day 10 of the colchicine administration, the drug treatment was initiated from day 11 to 24. The effects of different drug treatments on dementia were assessed on days 14 and 21. On these particular days, the swim test was performed 15 min after the administration of different treatments and escape latencies; residence time and peripheral swim time were recorded (Nampoothiri [2017]). The retention trials for PAT on day 17 and 23 were performed on days 17 and 23, 15 min after the administration of the drug.
On the 6th day, surgery was performed as described (Bokare et al. [2018]). Rat was anesthetized with sodium pentobarbital (45 mg/kg, i.p.) and positioned in stereotaxic apparatus. The head was positioned in a frame, and a midline sagittal incision was made in the scalp. Two holes were drilled through the skull at coordinates (0.8 mm posterior to bregma, 1.8 mm lateral to the sagittal suture, and 3.6 mm beneath the cortical surface) to place the injection cannula. Rats were intracerebroventricularly infused with either artificial cerebrospinal fluid (ACSF; in mM: 147 NaCl, 2.9 KCl, 1.6 MgCl2, 1.7 CaCl2, and 2.2 dextrose) or 15 µg of colchicine in 5 µL ACSF using a Hamilton microsyringe positioned in the injection cannula. To promote back diffusion, the microsyringe was left in place for 2 min following injection. The scalp was then closed with a suture. After surgery, all animals received gentamicin (5 mg/kg, i.p.) to prevent sepsis. Special care was taken during the postoperative period to provide food and water inside the cage of the rat. In sham-operated rats, surgery was identical except for injection of the solution.
A modified Morris water maze test was used (Nampoothiri [2017]). The pool was positioned in the middle of a dimly lit testing room with distant visual clues that could be used by rats for spatial orientation. The maze consisted of a circular water pool (140 × 45 cm) divided into four equally sized quadrants (NE, SE, SW, and NW) by two imaginary diagonal lines running across the center of the pool. The pool was filled with water maintained at a temperature of 23 ± 2 °C. In the NE quadrant (target quadrant) equidistant from the center and edge of the pool, a platform of 25-cm height and 10-cm diameter was invisibly placed submerged 1 cm below the water surface. Rats were gently placed in each quadrant facing the wall and trained to locate the hidden black platform, and the trial was terminated when the rat reached the platform or after 60 s. Accordingly, rats were subjected to one session of four trials per day for four consecutive days. All rats were left on the platform for 30 s and then removed and towel dried. Inter-trial interval was kept a constant 180 s throughout the study. In the probe trial, platform was removed, and rats were allowed to swim for a 60-s trial period. Data was collected in the form of escape latencies to find the platform; percent of time spent over the target quadrant.

[3] = tested on: scopolamine-induced amnesia rats; test: Locomotor activity (photoactometer), scopolamine-induced amnesia; conditions: scopolamine model, Mean ± SEM, photo beam counts for 5 min
Experimental: as §1
Locomotor activity was assessed in animals using a digital photoactometer (INCO, India) which contains a cage that is 30-cm long and 30-cm deep with a wire mesh at the bottom. The apparatus was placed in a dark, light, and sound attenuated testing room. Before the locomotor task, animals were placed individually in the activity meter for 3 min for habituation. Then, the ambulatory movements were recorded for 5 min and expressed in terms of total photo beam counts for 5 min per animal.

Row | Structure (SMILES) | Acquisition time ([1]; listed as SCP + INRSM) [s] | No. of crossings ([1]; listed as SCP + INRSM) | Time spent in bright comp. ([1]; listed as SCP + INRSM) [s] | Time spent in darker comp. ([1]; listed as SCP + INRSM) [s] | Latency time ([1]; listed as SCP + INRSM) [a s] | Escape latency, 14th day ([2]; listed as COL + INRSM) [s] | Escape latency, 21st day ([2]; listed as COL + INRSM) [c s] | Escape latency, Probe day ([2]; listed as COL + INRSM) [s] | Score on actophotometer ([3]; listed as SCP + INRSM) | Acquisition time ([1]; listed as SCP + ORSM) [s] | No. of crossings ([1]; listed as SCP + ORSM) | Time spent in bright comp. ([1]; listed as SCP + ORSM) [s] | Time spent in darker comp. ([1]; listed as SCP + ORSM) [s] | Latency time ([1]; listed as SCP + ORSM) [a s] | Escape latency, 14th day ([2]; listed as COL + ORSM) [s] | Escape latency, 21st day ([2]; listed as COL + ORSM) [c s] | Escape latency, Probe day ([2]; listed as COL + ORSM) [s] | Score on actophotometer ([3]; listed as SCP + ORSM)
1 | CCN(C)C(=O)Oc1cccc([C@H](C)N(C)C)c1 [INRSM, rivastigmine] | 11.59 ± 2.37 | 2.17 ± 0.54 | 109.67 ± 11.65 | 70.33 ± 11.65 | 60.11 ± 16.82 | 5.28 ± 0.7425 | 4.67 ± 0.3849 | 3.28 ± 0.5800 | 296.50 ± 17.68 |  |  |  |  |  |  |  |  | 
2 | CCN(C)C(=O)Oc1cccc([C@H](C)N(C)C)c1 [ORSM, rivastigmine] |  |  |  |  |  |  |  |  |  | 14.66 ± 2.61 | 2.50 ± 0.85 | 103.50 ± 16.38 | 76.50 ± 16.38 | 41.63 ± 15.66 | 5.89 ± 0.7027 | 5.28 ± 0.3809 | 2.83 ± 0.3181 | 238.16 ± 20.88

Reference: article PMC8298375 (Naunyn-Schmiedeberg's Archives of Pharmacology, 2021)
